Experimental data published in ChEMBL document CHEMBL6109043, “Advances in the selective c-MET kinase inhibitors: Application of fused [5,6]-Bicyclic nitrogen-containing cores for anticancer drug design” (Eur J Med Chem, 2025).
In brackets after ≈: the same amount, converted by molar mass.

Tests used:
[1] = Antiproliferative activity against mouse BaF3/TRP-Met cells assessed as reduction in cell growth incubated for 72 hrs by SRB assay; conditions: BaF3, 72 h
NIH3T3 [2] = experiment: Antiproliferative activity against mouse NIH3T3/TRP-Met cells assessed as reduction in cell growth incubated for 72 hrs by SRB assay; conditions: NIH3T3, 72 h
NIH3T3 [3] = experiment: Antiproliferative activity against mouse NIH3T3 cells assessed as reduction in cell growth incubated for 72 hrs by SRB assay; conditions: NIH3T3, 72 h
SNU1 = experiment: Antiproliferative activity against human SNU1 cells assessed as reduction in cell viability incubated for 72 hrs by SRB assay; conditions: SNU1, 72 h
NCI-H661 = experiment: Antiproliferative activity against human NCI-H661 cells assessed as reduction in cell viability incubated for 72 hrs by SRB assay; conditions: NCI-H661, 72 h
[4] = target: T1, Hepatocyte growth factor receptor (Homo sapiens, UniProt P08581); experiment: Inhibition of c-MET (unknown origin) incubated for 30 mins by ELISA method
T1 sequence (P08581 whole entry): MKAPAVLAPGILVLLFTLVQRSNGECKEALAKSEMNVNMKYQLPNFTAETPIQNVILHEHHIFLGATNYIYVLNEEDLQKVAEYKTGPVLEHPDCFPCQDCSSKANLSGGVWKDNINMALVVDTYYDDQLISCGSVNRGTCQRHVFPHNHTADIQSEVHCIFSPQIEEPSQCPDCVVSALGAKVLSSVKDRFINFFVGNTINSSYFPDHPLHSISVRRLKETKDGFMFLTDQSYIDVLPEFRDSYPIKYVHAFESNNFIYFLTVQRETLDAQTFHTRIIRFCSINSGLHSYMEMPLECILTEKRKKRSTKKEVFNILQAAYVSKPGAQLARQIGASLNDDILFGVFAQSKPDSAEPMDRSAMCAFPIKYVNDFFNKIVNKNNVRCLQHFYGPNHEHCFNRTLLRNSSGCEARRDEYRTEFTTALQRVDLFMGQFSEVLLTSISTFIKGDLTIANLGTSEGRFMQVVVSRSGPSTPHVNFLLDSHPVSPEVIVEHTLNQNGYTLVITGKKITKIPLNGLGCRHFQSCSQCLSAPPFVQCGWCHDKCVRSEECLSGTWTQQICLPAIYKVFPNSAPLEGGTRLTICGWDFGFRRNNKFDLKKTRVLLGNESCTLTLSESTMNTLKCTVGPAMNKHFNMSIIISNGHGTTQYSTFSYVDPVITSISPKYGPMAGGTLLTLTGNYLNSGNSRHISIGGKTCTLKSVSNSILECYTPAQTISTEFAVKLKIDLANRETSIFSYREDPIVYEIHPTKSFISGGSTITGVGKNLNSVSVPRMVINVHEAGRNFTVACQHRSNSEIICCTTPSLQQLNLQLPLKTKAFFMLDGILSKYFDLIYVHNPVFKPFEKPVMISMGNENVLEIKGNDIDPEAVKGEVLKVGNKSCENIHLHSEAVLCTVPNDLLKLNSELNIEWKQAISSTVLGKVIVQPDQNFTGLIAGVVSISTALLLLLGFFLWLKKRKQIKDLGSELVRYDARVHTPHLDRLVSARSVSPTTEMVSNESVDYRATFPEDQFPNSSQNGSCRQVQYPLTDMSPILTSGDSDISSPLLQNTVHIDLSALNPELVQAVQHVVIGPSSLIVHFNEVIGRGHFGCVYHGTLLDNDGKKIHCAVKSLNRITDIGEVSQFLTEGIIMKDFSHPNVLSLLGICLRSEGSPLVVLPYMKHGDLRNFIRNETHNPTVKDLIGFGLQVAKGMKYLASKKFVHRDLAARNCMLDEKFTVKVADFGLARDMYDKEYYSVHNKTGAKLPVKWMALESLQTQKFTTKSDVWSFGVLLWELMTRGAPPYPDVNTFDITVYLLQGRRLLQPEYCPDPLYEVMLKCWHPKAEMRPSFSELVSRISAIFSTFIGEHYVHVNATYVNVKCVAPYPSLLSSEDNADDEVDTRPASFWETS

[5] = Antiproliferative activity against mouse BaF3/[…] cells assessed as reduction in cell viability incubated for 72 hrs by Cell-titer glo reagent based assay; type: functional; conditions: BaF3, 72 h
[6] = target: Epidermal growth factor receptor (Homo sapiens, UniProt P00533); experiment: Inhibition of EGFR (unknown origin)
[7] = target: ALK tyrosine kinase receptor (Homo sapiens, UniProt Q9UM73); experiment: Inhibition of ALK (unknown origin)
Sequence of ALK tyrosine kinase receptor (Q9UM73 whole entry): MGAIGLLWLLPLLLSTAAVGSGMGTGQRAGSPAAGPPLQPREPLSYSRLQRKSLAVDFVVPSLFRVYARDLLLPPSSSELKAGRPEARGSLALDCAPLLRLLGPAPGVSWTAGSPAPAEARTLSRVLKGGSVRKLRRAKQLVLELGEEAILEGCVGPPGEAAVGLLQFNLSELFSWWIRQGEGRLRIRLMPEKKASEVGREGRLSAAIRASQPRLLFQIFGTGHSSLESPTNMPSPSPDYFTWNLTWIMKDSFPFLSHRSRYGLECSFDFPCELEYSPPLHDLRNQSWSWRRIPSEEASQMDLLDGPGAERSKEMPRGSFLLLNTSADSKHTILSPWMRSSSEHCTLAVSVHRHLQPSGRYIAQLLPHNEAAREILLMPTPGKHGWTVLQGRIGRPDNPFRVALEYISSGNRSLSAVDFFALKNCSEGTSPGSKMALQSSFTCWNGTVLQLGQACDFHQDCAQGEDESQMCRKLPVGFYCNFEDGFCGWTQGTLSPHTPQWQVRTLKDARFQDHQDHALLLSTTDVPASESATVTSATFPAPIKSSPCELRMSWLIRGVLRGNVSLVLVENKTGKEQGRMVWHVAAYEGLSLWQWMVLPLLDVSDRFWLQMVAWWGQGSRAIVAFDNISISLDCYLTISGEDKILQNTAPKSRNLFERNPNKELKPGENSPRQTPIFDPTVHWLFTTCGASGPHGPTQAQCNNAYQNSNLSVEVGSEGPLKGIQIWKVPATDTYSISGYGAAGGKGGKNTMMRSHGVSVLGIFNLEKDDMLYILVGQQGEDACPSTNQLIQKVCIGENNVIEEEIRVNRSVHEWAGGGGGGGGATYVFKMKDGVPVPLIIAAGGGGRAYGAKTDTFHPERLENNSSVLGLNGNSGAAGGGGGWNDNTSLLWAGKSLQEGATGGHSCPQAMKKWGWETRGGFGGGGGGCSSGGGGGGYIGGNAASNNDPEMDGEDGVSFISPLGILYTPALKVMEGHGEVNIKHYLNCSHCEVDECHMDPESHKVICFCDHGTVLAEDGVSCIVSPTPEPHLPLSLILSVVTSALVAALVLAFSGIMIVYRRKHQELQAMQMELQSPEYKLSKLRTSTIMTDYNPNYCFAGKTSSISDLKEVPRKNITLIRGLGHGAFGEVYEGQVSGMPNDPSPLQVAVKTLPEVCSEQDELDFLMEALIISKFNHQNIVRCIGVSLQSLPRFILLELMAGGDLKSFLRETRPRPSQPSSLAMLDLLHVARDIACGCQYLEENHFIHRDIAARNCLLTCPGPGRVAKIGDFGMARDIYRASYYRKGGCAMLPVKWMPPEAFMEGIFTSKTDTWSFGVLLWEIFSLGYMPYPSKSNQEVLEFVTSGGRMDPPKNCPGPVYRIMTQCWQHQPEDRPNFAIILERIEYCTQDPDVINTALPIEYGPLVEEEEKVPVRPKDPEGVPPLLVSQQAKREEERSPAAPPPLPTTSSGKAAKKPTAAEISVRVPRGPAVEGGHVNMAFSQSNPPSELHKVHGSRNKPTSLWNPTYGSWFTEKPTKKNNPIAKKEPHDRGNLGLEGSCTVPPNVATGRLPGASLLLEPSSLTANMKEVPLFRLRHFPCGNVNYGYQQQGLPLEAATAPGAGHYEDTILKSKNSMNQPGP

[8] = target: Proto-oncogene tyrosine-protein kinase receptor Ret (Homo sapiens, UniProt P07949); experiment: Inhibition of RET (unknown origin)
Sequence of Proto-oncogene tyrosine-protein kinase receptor Ret (P07949 whole entry): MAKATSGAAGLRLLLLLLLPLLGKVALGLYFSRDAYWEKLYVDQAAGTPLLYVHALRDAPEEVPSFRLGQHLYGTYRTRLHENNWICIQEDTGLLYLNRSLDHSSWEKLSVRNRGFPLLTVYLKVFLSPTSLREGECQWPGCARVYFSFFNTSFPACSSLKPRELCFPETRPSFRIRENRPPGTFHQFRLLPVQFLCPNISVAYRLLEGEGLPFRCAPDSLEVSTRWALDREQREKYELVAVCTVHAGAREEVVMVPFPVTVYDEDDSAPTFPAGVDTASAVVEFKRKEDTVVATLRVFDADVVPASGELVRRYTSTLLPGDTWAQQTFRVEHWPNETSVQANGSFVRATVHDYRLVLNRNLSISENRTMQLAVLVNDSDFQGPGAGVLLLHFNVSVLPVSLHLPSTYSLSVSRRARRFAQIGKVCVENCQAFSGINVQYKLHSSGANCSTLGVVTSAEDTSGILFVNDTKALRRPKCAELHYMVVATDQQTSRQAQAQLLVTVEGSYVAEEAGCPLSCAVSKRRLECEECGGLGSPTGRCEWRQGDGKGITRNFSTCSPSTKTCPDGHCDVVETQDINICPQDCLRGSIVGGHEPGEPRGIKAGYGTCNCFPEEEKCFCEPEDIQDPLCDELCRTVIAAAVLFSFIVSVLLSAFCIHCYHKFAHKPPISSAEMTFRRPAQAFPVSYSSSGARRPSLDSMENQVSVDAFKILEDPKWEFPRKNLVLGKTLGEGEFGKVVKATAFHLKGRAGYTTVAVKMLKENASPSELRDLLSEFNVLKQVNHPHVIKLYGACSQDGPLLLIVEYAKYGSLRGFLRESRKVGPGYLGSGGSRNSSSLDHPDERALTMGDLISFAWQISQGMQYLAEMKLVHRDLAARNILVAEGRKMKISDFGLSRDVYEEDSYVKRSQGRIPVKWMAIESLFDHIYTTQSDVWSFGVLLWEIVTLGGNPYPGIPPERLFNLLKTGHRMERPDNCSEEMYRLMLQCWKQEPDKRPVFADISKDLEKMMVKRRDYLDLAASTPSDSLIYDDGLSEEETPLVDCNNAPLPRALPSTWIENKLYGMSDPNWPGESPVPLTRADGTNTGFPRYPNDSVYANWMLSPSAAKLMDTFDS

CYP3A4 [9] = target: T2, CYP3A4 (Homo sapiens, UniProt P08684); experiment: Inhibition of CYP3A4 (unknown origin); type: ADME
T2 sequence (P08684 whole entry): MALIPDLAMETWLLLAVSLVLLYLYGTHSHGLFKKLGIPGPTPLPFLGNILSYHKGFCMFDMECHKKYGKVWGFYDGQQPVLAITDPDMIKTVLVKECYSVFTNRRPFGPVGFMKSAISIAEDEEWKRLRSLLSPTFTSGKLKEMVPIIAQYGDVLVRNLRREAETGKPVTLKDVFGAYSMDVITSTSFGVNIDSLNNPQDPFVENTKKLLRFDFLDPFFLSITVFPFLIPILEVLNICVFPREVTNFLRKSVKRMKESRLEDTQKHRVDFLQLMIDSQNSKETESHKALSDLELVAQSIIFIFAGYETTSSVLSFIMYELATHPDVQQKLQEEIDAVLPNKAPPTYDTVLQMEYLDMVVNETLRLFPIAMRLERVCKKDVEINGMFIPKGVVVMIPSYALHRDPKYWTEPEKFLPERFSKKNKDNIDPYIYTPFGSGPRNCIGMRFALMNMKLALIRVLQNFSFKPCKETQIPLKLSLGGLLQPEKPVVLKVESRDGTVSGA

CYP3A4 [10] = target: T2, CYP3A4; experiment: Inhibition of CYP3A4 in human liver microsomes; type: ADME, Microsome
Cytochrome P450 3A4 = Cytochrome P450 3A4 (Homo sapiens, UniProt P08684); experiment: Inhibition of CYP3A4 in human liver microsome assessed as fold change; type: ADME; conditions: microsomes
Sequence of Cytochrome P450 3A4 (P08684 whole entry): as above

HepG2 = experiment: Antiproliferative activity against human HepG2 cells assessed as reduction in cell viability incubated for 72 hrs by MTT assay; type: functional, cell-based; conditions: HepG2, 72 h
[11] = target: T1, Hepatocyte growth factor receptor; experiment: Inhibition of c-MET (unknown origin) using poly (Glu,Tyr) 4:1 as substrate incubated for 30 mins by ADP-Glo reagent based analysis
[12] = Water solubility of compound at pH 7 incubated for 2 hrs by HPLC analysis; type: physicochemical
MKN-45 = experiment: Antiproliferative activity against human MKN-45 cells assessed as reduction in cell viability incubated for 72 hrs by Cell-titer glo luminescent assay; type: functional, cell-based; conditions: MKN-45, 72 h
EBC-1 = experiment: Antiproliferative activity against human EBC-1 cells assessed as reduction in cell viability incubated for 72 hrs by Cell-titer glo luminescent assay; type: functional, cell-based; conditions: EBC-1, 72 h
[13] = target: T1, Hepatocyte growth factor receptor; experiment: Inhibition of c-Met (unknown origin)

COc1ccc2c(OCc3nnc4ncc(-c5ccccc5)nn34)ccnc2c1
IC50 [1]: 23.7 nM
IC50 (NIH3T3 [2]): 79.5 nM
IC50 (NIH3T3 [3]): > 50000 nM
IC50 (SNU1): > 50000 nM
IC50 (NCI-H661): > 50000 nM

Clc1ccc(-c2cn3cccc(COc4nnc5ccc(Cl)nn45)c3n2)c(Cl)c1
IC50 [4]: 62 nM
IC50 [5]: 271 nM
IC50 [6]: 15600 nM
IC50 [7]: 13500 nM
IC50 [8]: 12300 nM

COc1ccc2c(NCc3nnc4ccc(-c5ccccc5)nn34)ccnc2c1
IC50 (CYP3A4 [9]): > 50000 nM
IC50 (CYP3A4 [10]): > 50000 nM
fold change (FC) (Cytochrome P450 3A4): > 1

COc1ccc2c(SCc3nnc4ccc(-c5ccccc5)nn34)ccnc2c1
fold change (FC) (Cytochrome P450 3A4): 0.64

Cc1ccc(-c2cnc3nnc(SCc4ccncc4)n3n2)cc1
IC50 (HepG2): 740 nM
IC50 [11]: 4.6 nM

Brc1ccc(-c2cnc3nnc(SCc4cccnc4)n3n2)cc1
IC50 (HepG2): 710 nM
IC50 [11]: 6.4 nM

Oc1ccc(-c2cnc3nnc(SCc4ccncc4)n3n2)cc1
solubility at 2 h [12]: 3.6 µg/mL (≈ 10.7 µM)

Cc1[nH]c2ncc(-c3cnn(C4CCNCC4)c3)cc2c1C(C)c1c(Cl)ccc(F)c1Cl (centres undefined)
IC50 (MKN-45): 1980 nM
IC50 (EBC-1): 2380 nM

Cc1ccc(-c2cnc3nnc(SCc4cccnc4)n3n2)cc1
IC50 (HepG2): 1020 nM
IC50 [11]: 5.6 nM

CC(c1c(Cl)ccc(F)c1Cl)c1c(Cl)[nH]c2ncc(-c3cnn(C4CCNCC4)c3)cc12 (centres undefined)
IC50 (MKN-45): 6520 nM
IC50 (EBC-1): 9220 nM

Oc1ccc(-c2cnc3nnc(NCc4ccncc4)n3n2)cc1
IC50 (HepG2): 3060 nM
IC50 [11]: 52 nM
solubility at 2 h [12]: 203 µg/mL (≈ 636 µM)

Clc1ccc(Cl)c(-c2cn3cccc(COc4nnc5ccc(Cl)nn45)c3n2)c1
IC50 [4]: 53 nM
IC50 [5]: 253 nM
IC50 [6]: 14200 nM
IC50 [7]: 11300 nM
IC50 [8]: 12200 nM

COc1ccc2c(OCc3nnc4ccc(-c5ccccc5)nn34)ccnc2c1 [AMG-208]
IC50 [13]: 4.4 nM
